In one experiment the test system is pancreatic β cells. As to the kind of experiment: glucose-stimulated insulin secretion (GSIS) assay. In kind it is cell-based. To be noted: GA targeting peptide; insulin secretion from pancreatic β cell cultures in vitro with glucose. The protocol: Briefly, glucose and GA targeting peptide was added at various concentrations to pancreatic β cell cultures, and insulin secretion was detected by measuring insulin levels over time. EC50 was calculated for each peptide.
The ability of these GA targeting agent-linker conjugates to stimulate […] secretion in vitro was measured using the GSIS assay described in Example 27. […] Each of these peptides contained a side-chain modified Lys residue according to the scheme illustrated in FIG. 30 at a different position.

A further experiment has as its target m38C2. The following applies: competition ELISA against immobilized BSA-conjugated β-diketone 1, read-out: apparent equilibrium dissociation constant; cited from earlier work.
For another experiment, the target named is h38C2. To be noted: competition ELISA against immobilized BSA-conjugated β-diketone 1, read-out: apparent equilibrium dissociation constant; cited from earlier work. (ELISA stands for enzyme-linked immunosorbent assay.)

SMILES strings stand for the structures. Non-standard residues stand in square brackets, D forms with d. Residues, ends and D or L forms follow the SMILES beside them. Aib = CC(C)(N)C(=O)O

Turning to `CC[C@H](C)[C@H](NC(=O)[C@H](Cc1ccccc1)NC(=O)[C@H](CCC(=O)O)NC(=O)[C@H](CCCCN)NC(=O)[C@H](C)NC(=O)[C@H](C)NC(=O)[C@H](CCC(N)=O)NC(=O)CNC(=O)[C@H](CCC(=O)O)NC(=O)[C@H](CC(C)C)NC(=O)[C@H](Cc1ccc(O)cc1)NC(=O)[C@H](CO)NC(=O)[C@H](CO)NC(=O)[C@@H](NC(=O)[C@H](CC(=O)O)NC(=O)[C@H](CO)NC(=O)[C@@H](NC(=O)[C@H](Cc1ccccc1)NC(=O)[C@@H](NC(=O)CNC(=O)[C@H](CCC(=O)O)NC(=O)C(C)(C)NC(=O)[C@@H](N)Cc1c[nH]cn1)[C@@H](C)O)[C@@H](C)O)C(C)C)C(=O)N[C@@H](C)C(=O)N[C@@H](Cc1c[nH]c2ccccc12)C(=O)N[C@@H](CC(C)C)C(=O)N[C@H](C(=O)N[C@@H](CCCNC(=N)N)C(=O)NC(C)(C)C(=O)N[C@@H](CCCNC(=N)N)C(N)=O)C(C)C` [SEQ ID NO: 55], the EC50 – broadly, the concentration that produces a half-maximal response – in the experiment with pancreatic β cells was under 10 µM.
Take `CC[C@H](C)[C@H](NC(=O)[C@H](Cc1ccccc1)NC(=O)[C@H](CCC(=O)O)NC(=O)[C@H](CCCCN)NC(=O)[C@@H](NC(=O)[C@H](C)NC(=O)[C@H](CCC(N)=O)NC(=O)[C@H](CCC(=O)O)NC(=O)[C@H](CCC(=O)O)NC(=O)[C@H](CC(C)C)NC(=O)[C@H](Cc1ccc(O)cc1)NC(=O)[C@H](CO)NC(=O)[C@H](CO)NC(=O)[C@@H](NC(=O)[C@H](CC(=O)O)NC(=O)[C@H](CO)NC(=O)[C@@H](NC(=O)[C@H](Cc1ccccc1)NC(=O)[C@@H](NC(=O)CNC(=O)[C@H](CCC(=O)O)NC(=O)C(C)(C)NC(=O)[C@@H](N)Cc1c[nH]cn1)[C@@H](C)O)[C@@H](C)O)C(C)C)C(C)C)C(=O)N[C@@H](C)C(=O)N[C@@H](Cc1c[nH]c2ccccc12)C(=O)N[C@@H](CC(C)C)C(=O)N[C@H](C(=O)N[C@@H](CCCCN)C(=O)NC(C)(C)C(=O)N[C@@H](CCCNC(=N)N)C(N)=O)[C@@H](C)CC` [SEQ ID NO: 57]: in the experiment with pancreatic β cells, the EC50 was under 10 µM.
For `CC[C@H](C)[C@H](NC(=O)[C@H](Cc1ccccc1)NC(=O)[C@H](CCC(=O)O)NC(=O)[C@H](CCCCN)NC(=O)[C@@H](NC(=O)[C@H](C)NC(=O)[C@H](CCC(N)=O)NC(=O)[C@H](CCC(=O)O)NC(=O)[C@H](CCC(=O)O)NC(=O)[C@H](Cc1ccccc1)NC(=O)[C@H](Cc1ccc(O)cc1)NC(=O)[C@H](CO)NC(=O)[C@H](CO)NC(=O)[C@@H](NC(=O)[C@H](CC(=O)O)NC(=O)[C@H](CO)NC(=O)[C@@H](NC(=O)[C@H](Cc1ccccc1)NC(=O)[C@@H](NC(=O)CNC(=O)[C@H](CCC(=O)O)NC(=O)C(C)(C)NC(=O)[C@@H](N)Cc1c[nH]cn1)[C@@H](C)O)[C@@H](C)O)C(C)C)C(C)C)C(=O)N[C@@H](C)C(=O)N[C@@H](Cc1c[nH]c2ccccc12)C(=O)N[C@@H](CC(C)C)C(=O)N[C@H](C(=O)N[C@@H](CCCCN)C(=O)NC(C)(C)C(=O)N[C@@H](CCCNC(=N)N)C(N)=O)[C@@H](C)CC` [SEQ ID NO: 58] (H-H[Aib]EGTFTSDVSSYFEEQAVKEFIAWLIK[Aib]R-NH2), the EC50 with pancreatic β cells was under 10 µM.
Still for that read-out and setting: then `CC[C@H](C)[C@H](NC(=O)[C@H](Cc1ccccc1)NC(=O)[C@H](CCC(=O)O)NC(=O)[C@H](CCCCN)NC(=O)[C@@H](NC(=O)[C@H](C)NC(=O)[C@H](CCC(N)=O)NC(=O)[C@H](CCC(=O)O)NC(=O)[C@H](CCC(=O)O)NC(=O)[C@H](Cc1ccc(O)cc1)NC(=O)[C@H](Cc1ccc(O)cc1)NC(=O)[C@H](CO)NC(=O)[C@H](CO)NC(=O)[C@@H](NC(=O)[C@H](CC(=O)O)NC(=O)[C@H](CO)NC(=O)[C@@H](NC(=O)[C@H](Cc1ccccc1)NC(=O)[C@@H](NC(=O)CNC(=O)[C@H](CCC(=O)O)NC(=O)C(C)(C)NC(=O)[C@@H](N)Cc1c[nH]cn1)[C@@H](C)O)[C@@H](C)O)C(C)C)C(C)C)C(=O)N[C@@H](C)C(=O)N[C@@H](Cc1c[nH]c2ccccc12)C(=O)N[C@@H](CC(C)C)C(=O)N[C@H](C(=O)N[C@@H](CCCCN)C(=O)NC(C)(C)C(=O)N[C@@H](CCCNC(=N)N)C(N)=O)[C@@H](C)CC` [SEQ ID NO: 59] (H-H[Aib]EGTFTSDVSSYYEEQAVKEFIAWLIK[Aib]R-NH2), with under 10 µM; and `CC[C@H](C)[C@H](NC(=O)[C@H](Cc1ccccc1)NC(=O)[C@H](CCC(=O)O)NC(=O)[C@H](CCCCN)NC(=O)[C@@H](NC(=O)[C@H](C)NC(=O)[C@H](CCC(N)=O)NC(=O)[C@H](CCC(=O)O)NC(=O)[C@H](CCC(=O)O)NC(=O)[C@H](Cc1c[nH]c2ccccc12)NC(=O)[C@H](Cc1ccc(O)cc1)NC(=O)[C@H](CO)NC(=O)[C@H](CO)NC(=O)[C@@H](NC(=O)[C@H](CC(=O)O)NC(=O)[C@H](CO)NC(=O)[C@@H](NC(=O)[C@H](Cc1ccccc1)NC(=O)[C@@H](NC(=O)CNC(=O)[C@H](CCC(=O)O)NC(=O)C(C)(C)NC(=O)[C@@H](N)Cc1c[nH]cn1)[C@@H](C)O)[C@@H](C)O)C(C)C)C(C)C)C(=O)N[C@@H](C)C(=O)N[C@@H](Cc1c[nH]c2ccccc12)C(=O)N[C@@H](CC(C)C)C(=O)N[C@H](C(=O)N[C@@H](CCCCN)C(=O)NC(C)(C)C(=O)N[C@@H](CCCNC(=N)N)C(N)=O)[C@@H](C)CC` [SEQ ID NO: 60] (H-H[Aib]EGTFTSDVSSYWEEQAVKEFIAWLIK[Aib]R-NH2), with under 10 µM; and `CC[C@H](C)[C@H](NC(=O)[C@H](Cc1ccccc1)NC(=O)[C@H](CCC(=O)O)NC(=O)[C@H](CCCCN)NC(=O)[C@@H](NC(=O)[C@H](C)NC(=O)[C@H](CCC(N)=O)NC(=O)[C@H](CCC(=O)O)NC(=O)[C@H](CCC(=O)O)NC(=O)[C@H](CC(C)C)NC(=O)[C@H](Cc1ccc(O)cc1)NC(=O)[C@H](CO)NC(=O)[C@H](CO)NC(=O)[C@@H](NC(=O)[C@H](CC(=O)O)NC(=O)[C@H](CO)NC(=O)[C@@H](NC(=O)[C@H](Cc1ccccc1)NC(=O)[C@@H](NC(=O)CNC(=O)[C@H](CCC(=O)O)NC(=O)C(C)(C)NC(=O)[C@@H](N)Cc1c[nH]cn1)[C@@H](C)O)[C@@H](C)O)C(C)C)C(C)C)C(=O)N[C@@H](C)C(=O)N[C@@H](Cc1c[nH]c2ccccc12)C(=O)N[C@@H](CC(C)C)C(=O)N[C@H](C(=O)N[C@@H](CCCNC(=N)N)C(=O)NC(C)(C)C(=O)N[C@@H](CCCNC(=N)N)C(N)=O)[C@@H](C)CC` [SEQ ID NO: 61] (H-H[Aib]EGTFTSDVSSYLEEQAVKEFIAWLIR[Aib]R-NH2), with under 10 µM.
In turn, `CC[C@H](C)[C@H](NC(=O)[C@H](Cc1ccccc1)NC(=O)[C@H](CCC(=O)O)NC(=O)[C@H](CCCNC(=N)N)NC(=O)[C@@H](NC(=O)[C@H](C)NC(=O)[C@H](CCC(N)=O)NC(=O)[C@H](CCC(=O)O)NC(=O)[C@H](CCC(=O)O)NC(=O)[C@H](CC(C)C)NC(=O)[C@H](Cc1ccc(O)cc1)NC(=O)[C@H](CO)NC(=O)[C@H](CO)NC(=O)[C@@H](NC(=O)[C@H](CC(=O)O)NC(=O)[C@H](CO)NC(=O)[C@@H](NC(=O)[C@H](Cc1ccccc1)NC(=O)[C@@H](NC(=O)CNC(=O)[C@H](CCC(=O)O)NC(=O)C(C)(C)NC(=O)[C@@H](N)Cc1c[nH]cn1)[C@@H](C)O)[C@@H](C)O)C(C)C)C(C)C)C(=O)N[C@@H](C)C(=O)N[C@@H](Cc1c[nH]c2ccccc12)C(=O)N[C@@H](CC(C)C)C(=O)N[C@H](C(=O)N[C@@H](CCCNC(=N)N)C(=O)NC(C)(C)C(=O)N[C@@H](CCCNC(=N)N)C(N)=O)[C@@H](C)CC` [SEQ ID NO: 62] (H-H[Aib]EGTFTSDVSSYLEEQAVREFIAWLIR[Aib]R-NH2) displayed an EC50 with pancreatic β cells of under 10 µM.
As for `CC(=O)CC(C)=O` [β-diketone 2], the Kd was 38 µM on m38C2 and 7.6 µM on h38C2.
For the compound `CC(=O)CC(=O)CCc1ccccc1` [β-diketone 3], the Kd on m38C2 is 0.43 µM; at h38C2, 1 µM.

The values are drawn from patent publication US20090098130A1, “GLUCAGON-LIKE PROTEIN-1 RECEPTOR (GLP-1R) AGONIST COMPOUNDS” (priority 2007, published 2009).
